Assay results reported in ChEMBL document CHEMBL2434905, “2-Amino-6-chloro-3,4-dihydroquinazoline: A novel 5-HT3 receptor antagonist with antidepressant character” (Bioorg Med Chem Lett, 2013).

What was measured:
[1] = Lipophilicity, log P of the compound by HPLC analysis; type: physicochemical
[2] = Displacement of [3H]DTG from sigma2 receptor (unknown origin) expressed in rat PC12 cells after 90 mins by scintillation counting analysis; type: cell-based, Homo sapiens; conditions: pc-12
Mus musculus [3] = experiment: Antidepressant activity in ip dosed ICR mouse assessed as immobility time by tail suspension test; type: functional
[4] = biological target: T1, 5-hydroxytryptamine receptor 3A (Homo sapiens, UniProt P46098); experiment: Displacement of [3H]GR65630 from human 5-HT3 receptor expressed in African green monkey COS cells after 90 mins by scintillation counting analysis; type: cell-based
T1 sequence (P46098 whole entry): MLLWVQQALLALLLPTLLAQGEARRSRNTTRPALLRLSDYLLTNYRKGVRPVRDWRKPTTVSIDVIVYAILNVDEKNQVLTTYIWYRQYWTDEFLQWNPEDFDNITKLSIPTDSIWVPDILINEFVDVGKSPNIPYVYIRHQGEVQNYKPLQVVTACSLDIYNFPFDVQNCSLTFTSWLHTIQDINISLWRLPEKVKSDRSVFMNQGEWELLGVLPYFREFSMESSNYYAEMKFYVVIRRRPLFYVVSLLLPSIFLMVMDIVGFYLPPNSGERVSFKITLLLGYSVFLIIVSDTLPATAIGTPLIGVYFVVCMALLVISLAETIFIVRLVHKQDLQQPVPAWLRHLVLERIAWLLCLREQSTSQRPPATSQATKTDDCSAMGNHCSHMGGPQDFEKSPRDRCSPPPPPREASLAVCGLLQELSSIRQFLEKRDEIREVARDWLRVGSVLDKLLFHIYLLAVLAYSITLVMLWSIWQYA

D(2) dopamine receptor = D(2) dopamine receptor (Homo sapiens, UniProt P14416); experiment: Displacement of [[3H]N-methylspiperone from human recombinant dopamine D2 receptor expressed in human fibroblasts after 90 mins by scintillation counting analysis
Chain of D(2) dopamine receptor (P14416 whole entry): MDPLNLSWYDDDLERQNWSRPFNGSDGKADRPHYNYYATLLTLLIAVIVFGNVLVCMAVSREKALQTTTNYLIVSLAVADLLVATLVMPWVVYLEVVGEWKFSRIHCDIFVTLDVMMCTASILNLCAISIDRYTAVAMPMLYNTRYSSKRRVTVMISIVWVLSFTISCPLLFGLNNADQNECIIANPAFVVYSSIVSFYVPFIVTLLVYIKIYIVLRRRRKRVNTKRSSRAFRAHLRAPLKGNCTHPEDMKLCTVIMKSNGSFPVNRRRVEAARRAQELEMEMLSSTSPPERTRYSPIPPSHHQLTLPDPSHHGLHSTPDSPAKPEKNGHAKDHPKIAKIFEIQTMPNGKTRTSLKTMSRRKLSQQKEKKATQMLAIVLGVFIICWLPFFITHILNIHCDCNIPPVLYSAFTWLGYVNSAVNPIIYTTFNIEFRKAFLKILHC

Mus musculus [5] = experiment: Toxicity in ICR mouse assessed as total movement time at 1 to 3 mg/kg, ip after 15 to 45 mins by locomotor activity assay relative to vehicle-treated control; type: organism-based; design: route intraperitoneal; conditions: in vivo
[6] = biological target: Muscarinic acetylcholine receptor M3 (Homo sapiens, UniProt P20309); experiment: Binding affinity to human recombinant muscarinic M3 receptor expressed in CHO cells after 90 mins by radioligand displacement assay; type: cell-based
[7] = biological target: 5-hydroxytryptamine receptor 1D (Homo sapiens, UniProt P28221); experiment: Displacement of [3H]5-CT from human recombinant 5-HT1D receptor expressed in HEK cells after 90 mins by scintillation counting analysis; type: cell-based, HEK293
[8] = biological target: T2, 5-hydroxytryptamine receptor 3A (Mus musculus, UniProt P23979); experiment: Displacement of [3H]LY278584 from mouse 5-HT3A receptor
T2 sequence (P23979 whole entry): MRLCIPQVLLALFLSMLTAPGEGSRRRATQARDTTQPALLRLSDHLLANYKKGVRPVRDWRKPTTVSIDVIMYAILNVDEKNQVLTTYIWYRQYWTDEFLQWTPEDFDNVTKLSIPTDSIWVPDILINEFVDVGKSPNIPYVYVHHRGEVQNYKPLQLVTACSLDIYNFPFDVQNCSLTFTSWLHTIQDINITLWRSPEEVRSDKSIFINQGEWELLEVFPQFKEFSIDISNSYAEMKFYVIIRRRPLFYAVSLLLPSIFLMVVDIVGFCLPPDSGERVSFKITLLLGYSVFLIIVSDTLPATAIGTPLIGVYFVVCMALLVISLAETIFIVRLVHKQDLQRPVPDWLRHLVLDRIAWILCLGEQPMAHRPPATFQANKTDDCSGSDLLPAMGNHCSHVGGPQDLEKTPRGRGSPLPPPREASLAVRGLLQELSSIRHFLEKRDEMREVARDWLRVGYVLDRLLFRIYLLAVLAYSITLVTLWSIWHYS

Histamine H1 receptor = Histamine H1 receptor (Homo sapiens, UniProt P35367); experiment: Displacement of [3H]Pyrilamine from human recombinant histamine H1 receptor expressed in HEK cells after 90 mins by scintillation counting analysis; type: cell-based, HEK293
Chain of Histamine H1 receptor (P35367 whole entry): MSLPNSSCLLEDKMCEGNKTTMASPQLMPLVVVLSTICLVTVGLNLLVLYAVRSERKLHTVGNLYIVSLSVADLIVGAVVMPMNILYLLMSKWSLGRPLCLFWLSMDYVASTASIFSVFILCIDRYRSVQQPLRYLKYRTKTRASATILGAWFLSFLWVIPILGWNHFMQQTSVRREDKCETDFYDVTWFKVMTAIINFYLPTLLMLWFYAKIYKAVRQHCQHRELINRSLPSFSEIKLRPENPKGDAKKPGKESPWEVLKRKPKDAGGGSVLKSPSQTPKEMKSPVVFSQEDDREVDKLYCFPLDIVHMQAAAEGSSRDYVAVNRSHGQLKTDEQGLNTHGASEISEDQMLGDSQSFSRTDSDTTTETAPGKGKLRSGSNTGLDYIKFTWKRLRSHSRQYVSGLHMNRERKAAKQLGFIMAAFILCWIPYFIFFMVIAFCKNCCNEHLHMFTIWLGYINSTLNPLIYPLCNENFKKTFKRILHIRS

[9] = biological target: 5-hydroxytryptamine receptor 2B (Homo sapiens, UniProt P41595); experiment: Displacement of [3H]LSD from human recombinant 5-HT2B receptor expressed in HEK cells after 90 mins by scintillation counting analysis; type: cell-based, HEK293
[10] = biological target: Beta-1 adrenergic receptor (Homo sapiens, UniProt P08588); experiment: Binding affinity to human recombinant beta1-adrenoceptor expressed in CHO cells after 90 mins by radioligand displacement assay; type: cell-based
[11] = biological target: 5-hydroxytryptamine receptor 1B (Homo sapiens, UniProt P28222); experiment: Displacement of [3H]5-CT from human recombinant 5-HT1B receptor expressed in HEK cells after 90 mins by scintillation counting analysis; type: cell-based, HEK293
Chain of 5-hydroxytryptamine receptor 1B (P28222 whole entry): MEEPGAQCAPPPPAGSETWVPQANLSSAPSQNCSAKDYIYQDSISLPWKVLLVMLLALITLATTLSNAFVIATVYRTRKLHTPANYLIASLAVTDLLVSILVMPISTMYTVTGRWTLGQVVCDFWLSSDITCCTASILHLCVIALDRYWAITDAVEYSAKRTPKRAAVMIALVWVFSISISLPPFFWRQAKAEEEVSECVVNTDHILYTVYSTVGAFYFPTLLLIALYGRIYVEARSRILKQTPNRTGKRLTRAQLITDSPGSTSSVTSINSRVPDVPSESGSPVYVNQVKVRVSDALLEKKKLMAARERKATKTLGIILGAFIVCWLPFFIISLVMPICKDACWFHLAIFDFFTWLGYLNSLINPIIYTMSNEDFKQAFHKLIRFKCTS

[12] = biological target: 5-hydroxytryptamine receptor 2A (Homo sapiens, UniProt P28223); experiment: Displacement of [3H]Ketanserin from human recombinant 5-HT2A receptor expressed in HEK cells after 90 mins by scintillation counting analysis; type: cell-based, HEK293
Chain of 5-hydroxytryptamine receptor 2A (P28223 whole entry): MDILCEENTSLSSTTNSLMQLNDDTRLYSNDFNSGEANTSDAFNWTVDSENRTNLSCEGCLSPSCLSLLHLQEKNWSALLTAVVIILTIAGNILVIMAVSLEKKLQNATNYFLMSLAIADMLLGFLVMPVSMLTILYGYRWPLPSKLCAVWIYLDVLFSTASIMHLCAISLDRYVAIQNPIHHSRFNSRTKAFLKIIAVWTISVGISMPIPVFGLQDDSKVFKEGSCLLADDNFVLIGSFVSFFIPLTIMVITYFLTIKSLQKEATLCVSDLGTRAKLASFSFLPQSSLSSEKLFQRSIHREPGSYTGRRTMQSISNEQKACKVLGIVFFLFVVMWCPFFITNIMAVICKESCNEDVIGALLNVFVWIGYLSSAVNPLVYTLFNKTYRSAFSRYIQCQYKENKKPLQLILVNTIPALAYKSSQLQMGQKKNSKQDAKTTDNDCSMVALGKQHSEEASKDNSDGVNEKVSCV

D(4) dopamine receptor = D(4) dopamine receptor (Homo sapiens, UniProt P21917); experiment: Displacement of [3H]N-methylspiperone from dopamine D4 receptor (unknown origin) after 90 mins by scintillation counting analysis
Chain of D(4) dopamine receptor (P21917 whole entry): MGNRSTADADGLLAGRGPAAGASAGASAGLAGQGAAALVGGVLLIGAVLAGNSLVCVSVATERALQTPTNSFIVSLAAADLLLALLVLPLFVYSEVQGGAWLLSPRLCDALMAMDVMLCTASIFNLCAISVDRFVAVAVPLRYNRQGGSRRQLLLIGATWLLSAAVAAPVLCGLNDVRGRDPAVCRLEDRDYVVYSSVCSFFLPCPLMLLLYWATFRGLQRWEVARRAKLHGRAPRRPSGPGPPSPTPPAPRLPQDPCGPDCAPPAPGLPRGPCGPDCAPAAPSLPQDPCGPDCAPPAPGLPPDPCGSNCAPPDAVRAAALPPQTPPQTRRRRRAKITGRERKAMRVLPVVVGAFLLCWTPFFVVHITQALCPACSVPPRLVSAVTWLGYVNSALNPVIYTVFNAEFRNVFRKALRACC

[13] = biological target: Alpha-1B adrenergic receptor (Homo sapiens, UniProt P35368); experiment: Displacement of [3H]Prazosin from human recombinant alpha1B-adrenoceptor expressed in HEK cells after 90 mins by scintillation counting analysis; type: cell-based, HEK293
D(1A) dopamine receptor = D(1A) dopamine receptor (Homo sapiens, UniProt P21728); experiment: Displacement of [3H]SCH23390 from human recombinant dopamine D1 receptor expressed in HEK cells after 90 mins by scintillation counting analysis; type: cell-based, HEK293
[14] = biological target: Muscarinic acetylcholine receptor M1 (Homo sapiens, UniProt P11229); experiment: Binding affinity to human recombinant muscarinic M1 receptor expressed in CHO cells after 90 mins by radioligand displacement assay; type: cell-based
[15] = biological target: Nicotinic acetylcholine receptor alpha2/beta2 (Homo sapiens, UniProt P02708+P17787); experiment: Displacement of [3H]-epibatidine from human alpha2beta2 nAChR transfected in HEK293 cells by scintillation counting analysis; type: cell-based
Chain of Nicotinic acetylcholine receptor alpha2/beta2 (P02708 whole entry): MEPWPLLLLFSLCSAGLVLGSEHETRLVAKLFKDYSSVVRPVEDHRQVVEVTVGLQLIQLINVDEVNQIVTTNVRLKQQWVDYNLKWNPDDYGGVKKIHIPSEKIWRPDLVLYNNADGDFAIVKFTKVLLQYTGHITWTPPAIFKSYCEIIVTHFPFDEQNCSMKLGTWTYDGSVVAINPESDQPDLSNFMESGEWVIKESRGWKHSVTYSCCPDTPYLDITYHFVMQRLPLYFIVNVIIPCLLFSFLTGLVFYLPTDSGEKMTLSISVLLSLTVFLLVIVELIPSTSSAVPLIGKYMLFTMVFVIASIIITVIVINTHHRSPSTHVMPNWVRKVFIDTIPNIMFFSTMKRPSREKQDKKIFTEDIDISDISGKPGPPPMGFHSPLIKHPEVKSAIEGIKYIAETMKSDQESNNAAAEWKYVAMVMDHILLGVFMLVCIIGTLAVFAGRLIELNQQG
Chain of Nicotinic acetylcholine receptor alpha2/beta2 (P17787 whole entry): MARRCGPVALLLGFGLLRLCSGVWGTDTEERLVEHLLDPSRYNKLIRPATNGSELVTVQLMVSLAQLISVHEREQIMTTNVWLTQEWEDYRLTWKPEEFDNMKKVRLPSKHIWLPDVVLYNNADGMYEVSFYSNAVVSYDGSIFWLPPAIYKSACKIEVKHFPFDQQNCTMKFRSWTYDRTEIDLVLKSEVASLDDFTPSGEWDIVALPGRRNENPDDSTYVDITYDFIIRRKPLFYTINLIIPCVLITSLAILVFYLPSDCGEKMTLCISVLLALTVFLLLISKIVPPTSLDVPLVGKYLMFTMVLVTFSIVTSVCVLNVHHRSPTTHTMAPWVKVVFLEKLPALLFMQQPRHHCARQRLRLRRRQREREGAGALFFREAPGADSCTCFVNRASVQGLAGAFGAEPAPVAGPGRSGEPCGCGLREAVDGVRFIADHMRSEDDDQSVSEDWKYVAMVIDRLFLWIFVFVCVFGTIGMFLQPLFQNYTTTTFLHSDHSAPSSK

[16] = biological target: Sodium-dependent dopamine transporter (Homo sapiens, UniProt Q01959); experiment: Displacement of [3H]WIN35428 from human recombinant sodium-dependent dopamine transporter expressed in HEK cells after 90 mins by scintillation counting analysis; type: cell-based, HEK293
[17] = biological target: Muscarinic acetylcholine receptor M2 (Homo sapiens, UniProt P08172); experiment: Binding affinity to human recombinant muscarinic M2 receptor expressed in CHO cells after 90 mins by radioligand displacement assay; type: cell-based
Chain of Muscarinic acetylcholine receptor M2 (P08172 whole entry): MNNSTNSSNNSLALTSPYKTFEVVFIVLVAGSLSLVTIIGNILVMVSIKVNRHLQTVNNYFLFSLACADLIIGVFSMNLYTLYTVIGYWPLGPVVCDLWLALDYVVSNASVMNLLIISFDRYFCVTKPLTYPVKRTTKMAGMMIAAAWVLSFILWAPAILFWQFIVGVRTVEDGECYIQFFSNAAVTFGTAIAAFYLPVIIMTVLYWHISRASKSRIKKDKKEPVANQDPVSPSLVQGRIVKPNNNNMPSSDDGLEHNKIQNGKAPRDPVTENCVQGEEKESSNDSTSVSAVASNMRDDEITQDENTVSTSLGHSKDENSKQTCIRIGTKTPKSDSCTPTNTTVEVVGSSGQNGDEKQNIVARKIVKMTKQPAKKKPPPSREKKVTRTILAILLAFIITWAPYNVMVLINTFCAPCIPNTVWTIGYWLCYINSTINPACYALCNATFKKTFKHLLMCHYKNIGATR

[18] = biological target: T1, 5-hydroxytryptamine receptor 3A; experiment: Displacement of [3H]GR65630 from 5-HT3 receptor (unknown origin) expressed in mouse/rat NG108-15 cells after 30 mins by liquid scintillation counting analysis; type: cell-based
[19] = biological target: Alpha-1D adrenergic receptor (Homo sapiens, UniProt P25100); experiment: Displacement of [3H]Prazosin from human recombinant alpha1D-adrenoceptor after 90 mins by scintillation counting analysis
Chain of Alpha-1D adrenergic receptor (P25100 whole entry): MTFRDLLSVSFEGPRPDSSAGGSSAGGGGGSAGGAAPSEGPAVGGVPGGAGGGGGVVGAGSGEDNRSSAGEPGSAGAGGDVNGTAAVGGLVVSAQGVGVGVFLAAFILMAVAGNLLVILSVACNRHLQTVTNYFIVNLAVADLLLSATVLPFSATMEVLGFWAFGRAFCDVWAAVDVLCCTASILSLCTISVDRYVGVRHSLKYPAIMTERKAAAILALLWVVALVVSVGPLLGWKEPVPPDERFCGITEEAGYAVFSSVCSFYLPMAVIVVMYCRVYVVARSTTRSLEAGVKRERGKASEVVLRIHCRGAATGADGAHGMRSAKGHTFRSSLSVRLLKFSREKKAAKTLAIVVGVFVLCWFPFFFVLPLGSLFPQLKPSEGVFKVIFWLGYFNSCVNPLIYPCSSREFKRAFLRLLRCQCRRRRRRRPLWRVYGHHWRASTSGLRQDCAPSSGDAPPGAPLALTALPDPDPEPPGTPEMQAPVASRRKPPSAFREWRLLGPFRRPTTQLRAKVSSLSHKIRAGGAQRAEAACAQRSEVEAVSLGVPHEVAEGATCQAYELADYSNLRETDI

D(3) dopamine receptor = D(3) dopamine receptor (Homo sapiens, UniProt P35462); experiment: Displacement of [3H]N-methylspiperone from dopamine D3 receptor (unknown origin) after 90 mins by scintillation counting analysis
[20] = biological target: Alpha-2C adrenergic receptor (Homo sapiens, UniProt P18825); experiment: Displacement of [3H]Rauwolscine from human recombinant alpha2C-adrenoceptor expressed in MDCK cells after 90 mins by scintillation counting analysis; type: cell-based
Chain of Alpha-2C adrenergic receptor (P18825 whole entry): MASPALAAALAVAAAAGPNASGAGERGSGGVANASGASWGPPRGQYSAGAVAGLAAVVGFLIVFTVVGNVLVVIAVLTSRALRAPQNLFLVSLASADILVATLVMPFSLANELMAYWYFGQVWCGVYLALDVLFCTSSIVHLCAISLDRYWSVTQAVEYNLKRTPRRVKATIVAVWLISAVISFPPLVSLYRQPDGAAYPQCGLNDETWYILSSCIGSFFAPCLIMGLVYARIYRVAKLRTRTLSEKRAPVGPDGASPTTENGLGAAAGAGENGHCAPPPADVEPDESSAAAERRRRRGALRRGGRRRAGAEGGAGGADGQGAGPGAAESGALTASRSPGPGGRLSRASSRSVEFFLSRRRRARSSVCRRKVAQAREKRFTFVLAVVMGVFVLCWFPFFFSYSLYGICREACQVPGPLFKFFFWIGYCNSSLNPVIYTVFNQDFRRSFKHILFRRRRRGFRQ

Molecule Cl.NC1=Nc2ccc(Cl)cc2CN1 has a logP [1] of 1.86, a Ki [2] of 2.65 µM and a pKi [2] of 5.6. It also gave an ED50 (Mus musculus [3]) of 0.23 mg/kg, a Ki [4] of 0.08 µM and a Ki (D(2) dopamine receptor) of over 10 µM. The Activity (Mus musculus [5]) was “Non-toxic”, the Ki [6] was over 10 µM and the Ki [7] was 0.684 µM. It also gave a Ki [8] of 0.08 µM, a Ki (Histamine H1 receptor) of over 10 µM and a Ki [9] of 0.565 µM. The Ki [10] was over 10 µM, the Ki [11] was over 10 µM and the Ki [12] was 1.32 µM. It also gave a Ki (D(4) dopamine receptor; read-out: Ki) of 5.8 µM, a Ki (D(4) dopamine receptor; read-out: pKi (converted)) of 5.13 µM and a Ki [13] of over 10 µM. It also gave a Ki (D(1A) dopamine receptor) of over 10 µM, a Ki [14] of over 10 µM and a Ki [15] of over 10 µM. The Ki [16] was over 10 µM, the Ki [17] was over 10 µM and the Ki [18] was 0.034 µM. It also gave a Ki [19] of over 10 µM, a Ki (D(3) dopamine receptor) of over 10 µM and a Ki [20] of 0.84 µM.
